# Reference: ChEMBL document CHEMBL1201862, “PubChem BioAssay data set” (2004)
# Active and inactive are the calls of the source. For most assays here, no stated cut-off is given here; in the data, actives have a measured EC50 and inactives only a lower limit.
# Tests used:
# [1] = biological target: T1, Rac GTPase-activating protein 1 (Homo sapiens, UniProt Q9H0H5); assay: MgcRacGAP GTPase-activating activity inhibitors, confirmation, biochemical, ADP Hunter fluorescence, primary and confirmatory (AID 624330); type: functional
# T1 sequence (Q9H0H5 whole entry): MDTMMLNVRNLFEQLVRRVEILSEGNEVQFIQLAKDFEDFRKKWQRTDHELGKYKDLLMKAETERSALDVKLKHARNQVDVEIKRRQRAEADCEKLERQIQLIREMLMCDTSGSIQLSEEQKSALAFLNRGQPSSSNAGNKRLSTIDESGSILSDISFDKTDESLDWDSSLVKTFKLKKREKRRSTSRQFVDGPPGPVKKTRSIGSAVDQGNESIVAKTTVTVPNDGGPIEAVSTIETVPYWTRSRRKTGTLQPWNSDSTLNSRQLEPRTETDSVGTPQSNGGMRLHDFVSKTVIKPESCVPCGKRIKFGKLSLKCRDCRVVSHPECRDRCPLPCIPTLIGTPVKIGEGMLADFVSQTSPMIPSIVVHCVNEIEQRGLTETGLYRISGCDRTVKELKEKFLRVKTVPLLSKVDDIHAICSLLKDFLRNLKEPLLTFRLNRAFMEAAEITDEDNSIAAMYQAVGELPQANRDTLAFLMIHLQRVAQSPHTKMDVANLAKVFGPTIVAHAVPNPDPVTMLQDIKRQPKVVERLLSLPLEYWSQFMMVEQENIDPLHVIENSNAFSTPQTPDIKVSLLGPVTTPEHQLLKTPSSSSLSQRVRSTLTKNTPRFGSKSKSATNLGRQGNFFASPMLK
# [2] = test system: Streptococcus sp. 'group A'; assay: growth inhibition of control SK(-) GAS strain, dose response, counter-screen for streptokinase expression inhibitor project, luminescence, kanamycin, BacTiterGlo, confirmation (AID 1900); type: functional, organism-based
# [3] = biological target: T2, Streptokinase A (Streptococcus pyogenes serotype M1, UniProt P10520); assay: S. pyogenes streptokinase expression inhibitors, potency, dose response, plasminogen activation absorbance, OD405 (AID 1914); type: functional, Streptococcus pyogenes M1 GAS;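 further: secreted streptokinase activity via plasminogen activation per viability signal from cell pellet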
# T2 sequence (P10520 whole entry): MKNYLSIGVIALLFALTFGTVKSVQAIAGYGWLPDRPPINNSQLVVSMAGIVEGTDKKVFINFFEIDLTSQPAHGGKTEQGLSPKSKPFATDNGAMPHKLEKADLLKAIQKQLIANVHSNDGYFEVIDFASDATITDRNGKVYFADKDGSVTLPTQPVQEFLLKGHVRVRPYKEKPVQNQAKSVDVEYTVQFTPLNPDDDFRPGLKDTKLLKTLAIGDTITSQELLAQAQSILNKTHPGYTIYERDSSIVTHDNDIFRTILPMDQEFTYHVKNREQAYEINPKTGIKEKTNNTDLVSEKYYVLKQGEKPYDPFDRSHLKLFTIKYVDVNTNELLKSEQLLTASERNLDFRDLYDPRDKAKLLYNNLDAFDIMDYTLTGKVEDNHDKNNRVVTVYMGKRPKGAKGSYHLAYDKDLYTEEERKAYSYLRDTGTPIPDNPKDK
# [4] = biological target: Luciferin 4-monooxygenase (Photinus pyralis, UniProt P08659); assay: firefly luciferase enzyme inhibitors, dose response, biochemical, luminescence (AID 1891)
# [5] = Luminescence Cell-Based Dose Confirmation HTS to Identify Inhibitors of Platelet Dense Granule Release. [Related pubchem assays: 1663 (Primary HTS), 1678 (Summary of Project)]; type: functional
# [6] = test system: Streptococcus; assay: Group A Streptococcus viability loss, dose response, counter-screen for streptokinase expression inhibitor project, luminescence, BacTiterGlo (AID 1915); type: functional, organism-based;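 further: potency for reduction of bacterial viability or growth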
# [7] = biological target: T3, Corticotropin-releasing factor receptor 2/Corticotropin-releasing factor-binding protein (Homo sapiens, UniProt P24387+Q13324); assay: Dose Response confirmation of uHTS hits for small molecule antagonists of the CRF-binding protein and CRF-R2 receptor complex.; type: functional; conditions: read-out: IC50_Mean
# T3 sequence (Q13324 whole entry): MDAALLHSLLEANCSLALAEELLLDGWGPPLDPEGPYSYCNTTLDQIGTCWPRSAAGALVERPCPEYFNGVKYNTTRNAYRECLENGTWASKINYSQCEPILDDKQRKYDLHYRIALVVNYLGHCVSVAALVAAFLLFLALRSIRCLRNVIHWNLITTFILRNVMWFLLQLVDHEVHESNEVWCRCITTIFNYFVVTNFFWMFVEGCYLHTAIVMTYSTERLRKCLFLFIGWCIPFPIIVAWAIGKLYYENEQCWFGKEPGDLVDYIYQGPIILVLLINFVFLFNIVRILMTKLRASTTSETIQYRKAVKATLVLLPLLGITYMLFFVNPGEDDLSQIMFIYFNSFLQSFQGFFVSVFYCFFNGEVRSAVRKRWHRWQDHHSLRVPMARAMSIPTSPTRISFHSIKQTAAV
# T3 sequence (P24387 whole entry): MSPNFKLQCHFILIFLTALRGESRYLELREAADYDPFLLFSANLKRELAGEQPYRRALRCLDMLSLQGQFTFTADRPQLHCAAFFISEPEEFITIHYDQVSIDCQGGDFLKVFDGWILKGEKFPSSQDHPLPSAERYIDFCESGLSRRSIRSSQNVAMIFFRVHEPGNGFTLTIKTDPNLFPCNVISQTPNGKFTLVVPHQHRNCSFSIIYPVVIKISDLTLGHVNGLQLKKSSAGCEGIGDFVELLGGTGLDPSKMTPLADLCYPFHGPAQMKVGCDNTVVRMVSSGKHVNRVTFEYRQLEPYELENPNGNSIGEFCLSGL
# [8] = biological target: T3, Corticotropin-releasing factor receptor 2/Corticotropin-releasing factor-binding protein; assay: activators of CRF receptor 2 with binding protein – uHTS hits, confirmation (AID 602473); type: functional; conditions: read-out: EC50_Mean
# [9] = Luminescence Cell-Based Dose Retest to Confirm Inhibitors of Cancer Stem Cells. [Related pubchem assays (depositor defined):AID2717, AID2721]; type: functional; conditions: Homo sapiens
# [10] = test system: INS1; assay: beta cell apoptosis inhibitors, cytokine rescue, dose response, luminescence, retest (AID 449756); type: functional, cell-based; conditions: Rattus norvegicus;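 further: cell death triggered by IL-1 beta plus TNF-alpha plus IFN-gamma mixture; protective hits raise ATP signal compared with cytokine alone wells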
# [11] = inhibitors of intracellular T. cruzi replication, confirmation, NIH3T3 host cells, beta-gal luminescence (AID 2044); type: functional, cell-based;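 further: intracellular parasites grown in NIH/3T3 mouse fibroblasts as host cells; luminescent beta-galactosidase reporter signal from transgenic T. cruzi replicating inside host cells; inhibitors lower the luminescence signal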
# [12] = cytotoxicity toward NIH3T3 fibroblasts, dose response, counter-screen, cell-based, ATP luminescence, mouse fibroblasts (AID 2010); type: functional;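 further: cells exposed to compound for about 90 hours before reading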
# [13] = NIH-3T3 fibroblast cytotoxicity, dose response, cytotoxicity control, cell-based, fluorescence, Alamar Blue, secondary assay (AID 2327); type: functional;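 further: NIH-3T3 mouse fibroblasts cultured with fluconazole at 8 µg/mL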
# [14] = C. albicans growth with fluconazole, confirmation, fluorescence, retest (AID 2467); type: functional, cell-based
# [15] = biological target: Cytochrome P450 2D6 (Homo sapiens, UniProt P10635);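 further: CYP2D6 member of a cytochrome P450 panel assay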
# [16] = biological target: T4, Cytochrome P450 1A2 (Homo sapiens, UniProt P05177);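 further: PubChem cytochrome P450 panel assay, CYP1A2 panel member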
# T4 sequence (P05177 whole entry): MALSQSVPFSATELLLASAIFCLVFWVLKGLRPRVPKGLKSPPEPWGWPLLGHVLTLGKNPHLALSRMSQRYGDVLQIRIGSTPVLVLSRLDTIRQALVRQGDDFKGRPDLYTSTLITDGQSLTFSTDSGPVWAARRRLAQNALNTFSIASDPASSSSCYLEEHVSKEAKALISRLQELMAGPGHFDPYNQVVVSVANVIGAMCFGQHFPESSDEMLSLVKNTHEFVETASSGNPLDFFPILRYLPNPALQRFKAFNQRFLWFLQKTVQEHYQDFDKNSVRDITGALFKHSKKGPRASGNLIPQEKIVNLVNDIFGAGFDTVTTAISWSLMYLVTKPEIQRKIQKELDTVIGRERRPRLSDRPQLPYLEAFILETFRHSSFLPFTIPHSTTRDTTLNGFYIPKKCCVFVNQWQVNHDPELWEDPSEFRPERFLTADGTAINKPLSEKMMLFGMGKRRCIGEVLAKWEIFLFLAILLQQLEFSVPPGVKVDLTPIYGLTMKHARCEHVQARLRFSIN
# Luciferin 4-monooxygenase, sequence (P08659 whole entry): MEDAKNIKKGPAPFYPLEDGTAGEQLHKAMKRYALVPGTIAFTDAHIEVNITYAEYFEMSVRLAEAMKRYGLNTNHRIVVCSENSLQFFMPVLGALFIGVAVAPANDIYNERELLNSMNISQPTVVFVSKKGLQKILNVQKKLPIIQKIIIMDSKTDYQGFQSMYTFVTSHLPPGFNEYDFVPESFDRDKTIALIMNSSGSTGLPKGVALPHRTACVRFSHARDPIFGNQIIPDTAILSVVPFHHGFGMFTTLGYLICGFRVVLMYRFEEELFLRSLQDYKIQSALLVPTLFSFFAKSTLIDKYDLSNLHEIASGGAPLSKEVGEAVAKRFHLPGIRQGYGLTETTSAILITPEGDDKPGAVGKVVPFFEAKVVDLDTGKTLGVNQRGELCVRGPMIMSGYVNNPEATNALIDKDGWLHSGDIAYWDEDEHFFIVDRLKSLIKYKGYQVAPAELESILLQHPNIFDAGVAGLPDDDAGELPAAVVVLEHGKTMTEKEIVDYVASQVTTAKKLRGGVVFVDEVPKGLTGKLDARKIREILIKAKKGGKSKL
# Cytochrome P450 2D6, sequence (P10635 whole entry): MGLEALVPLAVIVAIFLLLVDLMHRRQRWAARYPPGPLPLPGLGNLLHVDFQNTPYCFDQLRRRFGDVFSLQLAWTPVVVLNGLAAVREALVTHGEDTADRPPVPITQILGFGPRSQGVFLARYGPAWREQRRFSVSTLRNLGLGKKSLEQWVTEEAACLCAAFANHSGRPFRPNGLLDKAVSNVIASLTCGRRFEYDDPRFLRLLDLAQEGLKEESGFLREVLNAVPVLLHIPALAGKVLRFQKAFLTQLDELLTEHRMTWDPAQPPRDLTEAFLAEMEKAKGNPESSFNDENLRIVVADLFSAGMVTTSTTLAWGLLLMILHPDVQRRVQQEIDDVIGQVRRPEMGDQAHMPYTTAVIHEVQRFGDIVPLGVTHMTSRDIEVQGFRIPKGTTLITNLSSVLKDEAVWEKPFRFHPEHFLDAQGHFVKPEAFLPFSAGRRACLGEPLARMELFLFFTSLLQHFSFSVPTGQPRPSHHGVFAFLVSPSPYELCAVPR
smiles,measurement,setting,value
Cc1cccc2c(N)c3c(nc12)N(C)CC3,IC50,[1],115 µM (active)
O=[N+]([O-])c1ccc(N=Nc2ccc(O)cc2O)cc1,EC50,[2],2.44 µM (active)
same,EC50,[3],> 50 µM (not active)
same,EC50,[4],1.05 µM (active)
same,EC50,[5],3 µM (active)
same,EC50,[6],24.6 µM (active)
O=C(c1ccco1)N1CCN(C(=O)c2ccc(COc3ccc(F)cc3)o2)CC1,EC50,[4],> 112 µM (not active)
same,EC50,[5],> 112 µM (not active)
CC(NCC(=O)Nc1ccccc1C(=O)NC1CC1)c1cccc(Cl)c1 (stereo unspecified),IC50,[7],> 47.1 µM (inactive)
same,EC50,[8],> 53 µM (inactive)
Cc1c(NC2=C(Cl)C(=O)N(c3ccccc3Cl)C2=O)c(=O)n(-c2ccccc2)n1C,IC50,[7],> 47.1 µM (inactive)
same,EC50,[8],> 53 µM (inactive)
Cc1ccc2nc(-c3cccc(-c4cccc(Cl)c4)c3)c(NCc3ccccc3)n2c1,AC50,[9],4.01 µM (active)
same,AC50,[10],7.9 µM (active)
CC[C@H](C)Cc1cn([C@@H](CCCCNC(=O)OC(C)(C)C)C(=O)NCCCCCCCCCCC(=O)N2CCN(C(=O)OC(C)(C)C)CC2)nn1,AC50,[10],7.02 µM (active)
Cc1ccc(N2CCN(C(=O)CN3C(=O)c4ccccc4C3=O)CC2)cc1,IC50,[7],> 47.1 µM (inactive)
same,EC50,[8],> 53 µM (inactive)
O=C(CSc1nc[nH]n1)Nc1cc(S(=O)(=O)N2CCCC2)ccc1Cl,IC50,[7],> 47.1 µM (inactive)
same,EC50,[8],> 53 µM (inactive)
COc1cccc(CN(C)C(=O)c2cccc(S(=O)(=O)N3CCN(c4ccccc4)CC3)c2)c1OC,IC50,[7],> 47.1 µM (inactive)
same,EC50,[8],> 53 µM (inactive)
O=[N+]([O-])c1ccc(-n2cnc3ccccc32)c([N+](=O)[O-])c1,EC50,[11],0.485 µM (active)
same,EC50,[12],> 60 µM (inconclusive)
same,AC50,[10],14.3 µM (active)
CC1(C)CC(N2CCN(Cc3ccccc3)CC2)=CC(=[N+]2CCCCC2)C1,EC50,[13],> 160 µM (inactive)
same,EC50,[14],2.72 µM (active)
same,EC50,[11],0.289 µM (active)
same,EC50,[12],> 60 µM (not active)
same,AC50,[10],2.16 µM (active)
Cc1ccccc1-n1c(CSC(=N)N)nc2ccccc2c1=O,IC50,[7],> 47.1 µM (inactive)
same,EC50,[8],> 53 µM (inactive)
CCOC(=O)C1CCN(C(=O)Cn2nc(C)n3c(cc4cc(F)ccc43)c2=O)CC1,EC50,[4],> 112 µM (not active)
same,EC50,[5],15.8 µM (active)
Cc1ccc(CNC(=O)C2CCCN(c3nn4c(=O)cc(C)nc4s3)C2)cc1 (stereo unspecified),EC50,[4],> 112 µM (not active)
same,EC50,[5],> 112 µM (not active)
C#CCN(C(=O)c1cc(COc2cccc(C(F)(F)F)c2)on1)C1CCCCC1,AC50,[10],> 120 µM (inactive)
COc1cccc(NC(=S)C(C#N)=C2N(C)c3ccccc3N2C)c1,IC50,[7],> 47.1 µM (inactive)
same,EC50,[8],> 53 µM (inactive)
CC(C)C[C@H]1CN=C(Nc2ccccc2)N1CCC(C)c1ccccc1 (stereo partly specified),AC50,[10],9.62 µM (active)
COc1cccc(-c2nc3ccc(O)cc3c(=O)o2)c1,EC50,[4],5.39 µM (active)
same,EC50,[5],9.19 µM (active)
CCCn1cc(S(=O)(=O)c2ccccc2)c(=O)c2cc(OCC)ccc21,IC50,[7],> 47.1 µM (inactive)
same,EC50,[8],> 53 µM (inactive)
O=C(NNc1ccc(Cl)cc1)c1cccs1,EC50,[13],2.56 µM (inconclusive)
same,EC50,[14],> 38 µM (not active)
same,AC50,[9],1.14 µM (active)
O=C(CN1CCN(c2ccccc2F)CC1)Nc1nnc(C(F)(F)F)s1,EC50,[13],> 150 µM (inactive)
same,EC50,[14],0.366 µM (active)
COC(=O)COc1ccc(S(=O)(=O)NCc2cccnc2)cc1C,EC50,[4],> 112 µM (not active)
same,EC50,[5],34.3 µM (active)
CCn1c(=O)c(C(=O)Nc2ccccn2)c(O)c2ccccc21,AC50,[10],30.2 µM (active)
COc1ccccc1NC(=O)Cc1c(F)cccc1Cl,EC50,[4],> 112 µM (not active)
same,EC50,[5],70.8 µM (active)
O=C(Nc1cccc(O)c1)C(=O)Nc1ccccn1,EC50,[4],7.77 µM (active)
same,EC50,[5],1.82 µM (active)
CC(c1ccccc1)N1CCn2c(nc3cc(NS(C)(=O)=O)ccc32)C1 (stereo unspecified),EC50,[13],> 160 µM (inconclusive)
same,EC50,[14],> 38 µM (not active)
O=C(CC1(O)C(=O)Nc2ccccc21)c1ccccc1 (stereo unspecified),EC50,[4],> 112 µM (not active)
same,EC50,[5],> 112 µM (not active)
CSc1ccccc1C(=O)Nc1ncc(C)s1,EC50,[4],> 112 µM (not active)
same,EC50,[5],65.8 µM (active)
O=C(CCn1nnc2ccccc21)N1CCN(c2ccccc2)CC1,IC50,[7],> 47.1 µM (inactive)
same,EC50,[8],> 53 µM (inactive)
CCn1c(SCC(=O)NC2CC2)nnc1-c1ccncc1,IC50,[7],> 47.1 µM (inactive)
same,EC50,[8],> 53 µM (inactive)
O=Nc1c(O)n(Cc2ccc(Cl)c(Cl)c2)c2ccccc12,EC50,[13],76.8 µM (active)
same,EC50,[14],3.73 µM (active)
same,AC50,[9],5.78 µM (active)
same,AC50,[15],28.2 µM (inconclusive)
same,AC50,[16],20 µM (inconclusive)
COc1ccc(Br)cc1/C=N/n1c(C)nnc1C,EC50,[4],> 112 µM (not active)
same,EC50,[5],> 112 µM (not active)
Clc1nc2ncnc-2c[nH]1,EC50,[4],> 112 µM (not active)
same,EC50,[5],> 112 µM (not active)
COc1ccc(-c2cc(C)no2)cc1S(=O)(=O)N(C)c1cccc(C)c1,EC50,[13],> 160 µM (inactive)
same,EC50,[14],> 38 µM (not active)
